The values below come from US20130296278A1, “Diazeniumdiolate Derivatives” (Merck Sharp & Dohme Corp., priority 2011, published 2013).

Usually half-life stands for the time needed for the level to fall by half in the phase considered.

The data set in a line: Rate of NO release (UV absorbance decay at 248 nm in pH 7.4 buffer). Format: physicochemical. The settings on record: 0.25 mM diazeniumdiolate in 100 mM pH 7.4 phosphate buffer, 22° C., absorbance at 248 nm; t½=ln(2)/k. On the procedure:
Compounds of the invention were evaluated for the rate of NO release using the following protocol described below.
The method described by Maragos, C. M, et al. Med. Chem. 1991, 34, 3242-3247, was followed. A 100 mM solution of pH 7.4 buffer was prepared by dissolving 626 mg of NaH2PO4.H2O and 4155 mg of Na2HPO4.7H2O in 200 mL of water. The 0.01 M solution of the individual diazeniumdiolate was prepared by dissolving the sodium diazeniumdiolate in 0.01 M sodium hydroxide solution. All solutions used were kept at room temperature. The cuvette incubator was set at 22° C. 25 μL of the 0.01 M diazeniumdiolate solution was added to a cuvette, followed by dilution with 975 μL of pH 7.4 buffer to obtain a 0.25 (25 uL of 0.01 M diluted to 1000 ul will be 0.25 mM) mM solution. The cuvette was inserted into the UV spectrometer, and its absorbance at λ=248 nm was acquired every 3 seconds.
The general first-order rate equation is: […]
The method of Kezdy, F. J.; Jaz, J.; Bruylants, A. Bull. Soc. Chim. Belg. 1958, 67, 687-706, later elaborated by Schwartz, L. M.; Gelb, R. I. Anal. Chem. 1978, 50, 1592-1594, was used to analyze the data without measuring A∞. Two equations are obtained when the measurement At is made at t and At+Δt is made at t+Δt. Dividing these two equations and rearranging the resultant equation, we arrive at
At=At+Δte^−k!+A∞(1−e^kΔt)
Plotting At against At+Δt would yield a straight line with k=−ln(slope)/Δt, A∞=intercept/(1−slope). As a result, t½=ln(2)/k.

As for `CCCN(/[N+]([O-])=N/[O-])C(C)(C)C.[Na+]` [Example 1, Sodium 1-(N-tert-butyl-N-propylamino)diazen-1-ium-1,2-diolate], the half-life at 0.25 mM was 1.45 min.

In the case of `C=CCN(/[N+]([O-])=N/[O-])C(C)(C)C.[Na+]` [Example 2, Sodium 1-(N-text-butyl-N-allylamino)diazen-1-ium-1,2-diolate], the half-life at 0.25 mM is 3.17 min.

In turn, `CC(C)(C)N(CCO)/[N+]([O-])=N/[O-].[Na+]` [Example 3, Sodium 1-[N-tert-butyl-N-(2′-hydroxyethyl)amino]diazen-1-ium-1,2-diolate] had a half-life at 0.25 mM of 3.42 min.
